In PubChem BioAssay (NCI) one finds GI50 and TGI data, which are given here for one compound.

Some test systems named below: M19-MEL melanoma; NCI-H23 lung; RXF 393 renal; XF 498 CNS; SF-268 CNS; DMS 114 small cell lung; KM20L2 colon; SW-620 colon; SNB-78 CNS; LXFL 529 NSCLC.
Common to all, as to test: NCI anticancer screen, dose series, 48 h

Values joined by “and” are separate entries in the source; they are usually repeats but may differ in a detail not shown here. Identical values can stand only once.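 These data come from cells grown in 96-well plates and exposed to compound for 48 hours at five concentrations. GI50 marks 50% less growth. The concentration for full growth arrest is given as TGI.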 Where only a bound is given, the exact number is not on record here.

In the case of `O=c1c2cc(O)ccc2n2nnc3ccc(NCCNCCO)c1c32`, the GI50 in the experiment with M19-MEL melanoma is 6.8 µM and 2.68 µM; with RXF 393 renal, 3.26 µM and 1.15 µM; with KM20L2 colon it was 27.1 µM and 13.4 µM; in the experiment on SW-620 colon, 5.16 µM and 1.55 µM; in the experiment on SNB-78 CNS, 4.78 µM and 2.11 µM. In addition, the TGI with M19-MEL melanoma was 20.7 µM and 12.1 µM; in the experiment on NCI-H23 lung, 42.3 µM and 20.2 µM; in the experiment on RXF 393 renal, 14.4 µM and 9.34 µM; in the experiment on XF 498 CNS it was 12.4 µM; in the experiment with SF-268 CNS it was 11.2 µM and 13.1 µM; in the experiment on DMS 114 small cell lung, 14.8 µM and 9.51 µM. Further, the TGI in the experiment with KM20L2 colon is > 100 µM and 44.9 µM; in the experiment on SW-620 colon it was > 88.5 µM and 14.8 µM; in the experiment on SNB-78 CNS, > 55.9 µM and 14.4 µM; in the experiment with LXFL 529 NSCLC, 18.1 µM and 13 µM.
